# Measured values as given in patent US20210292736A1, “PROTEIN LABELLING” (The Provost, Fellows, Scholars and other Members of Board …, priority 2020, published 2021).
# Key:
# recombinant DUB OTUB1 = recombinant DUB OTUB1 (Homo sapiens, UniProt Q96FW1); experiment: Eosin Y visible light-mediated labelling of recombinant OTUB1; format: biochemical; set-up: His; details: OTUB1 2 μg, probe 1 3 μg; 10 W white light from 50 cm vs UV 365 nm
# Procedure: FIG. 13—labelling of OTUB1 (2 μg) with probe 1 (3 μg) visualised by anti-HA western blot. Samples were preincubated for 90 min at 37° C. before the addition of Eosin Y. Samples were incubated for a further 10 min at 37° C. in the dark (lane 3) in ambient light (lane 4) or exposed to a 10 W white light lamp from 10 cm (lane 5).
# (§1) FIG. 18—comparative analysis of labelling using Eosin Y as the initiator relative to DPAP and MAP for recombinant enzymes OTUB1 (2 μg) and UCHL1 (2 μg), lanes 2-4 and 5-7, with probe 1 (3 μg) visualised by anti-HA western blot. Samples were preincubated for 90 min at 37° C. Lanes 3 and 6 were degassed for 2 min using N2 before the addition of DPAP and MAP or Eosin Y to the indicated samples. A further incubation was carried out for 10 min at 37° C. while lanes 3 and 6 were exposed to UV light (365 nm) and lanes 4, and 7 were exposed to a 10 W white light lamp from 50 cm.
# Firstly, the reactivity of the probe with the recombinant DUB OTUB1 was assessed using Eosin Y as the sole photoinitiator (FIG. 13). Triethanolamine, or similar coinitiators, could be used in combination with Eosin Y. The reaction was initiated using ambient light or a 10 W white light bulb. As a control, an equivalent sample was kept in darkness for the duration of the experiment. […]
# UCHL1 = biological target: T1, UCHL1 (Homo sapiens, UniProt P09936); experiment: Eosin Y visible light-mediated labelling of recombinant UCHL1; format: biochemical; details: UCHL1 2 μg, probe 1 3 μg; 10 W white light from 50 cm vs UV 365 nm
# T1 sequence (P09936 1-223): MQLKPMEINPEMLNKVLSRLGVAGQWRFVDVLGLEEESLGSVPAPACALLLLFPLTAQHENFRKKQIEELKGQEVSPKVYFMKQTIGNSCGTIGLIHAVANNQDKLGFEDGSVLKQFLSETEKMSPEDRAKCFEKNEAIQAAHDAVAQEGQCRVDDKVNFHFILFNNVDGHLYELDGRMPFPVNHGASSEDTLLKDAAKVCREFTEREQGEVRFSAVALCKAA
# Procedure: as §1
# Once optimised, a comparative labelling was carried out between these optimised Eosin Y labelling conditions versus the conditions optimised for DPAP and MAP labelling (FIG. 18). At this point to check the generality of the method, a further DUB, UCHL1 was tested alongside OTUB1.
# Probe 1 ([…]) was incubated with OTUB1 (0.2 μL, 13.78 μg/μL, in storage buffer) or UCHL1 (3.3 μL, 0.9 μg/μL, in storage buffer). The final volume of the labelling was adjusted to 30 μL with homogenisation buffer containing TCEP (1 mM). A stock solution of Eosin Y (0.29 mM in DMSO—homogenisation buffer, 4:1) was prepared fresh before use and protected from light. The reaction was preincubated for 90 min at 37° C. with gentle shaking before the addition of Eosin Y (0.5 μL of stock for recombinant enzyme labelling, final conc.=5 μM). […]
# [1] = test system: DUBs in HEK 293T cell lysate; experiment: Thiol-ene labelling in HEK293T cell lysate (anti-HA western blot); format: biochemical, H. sapiens; details: NEM 10 mM (FIG. 3A lane 8 vs 4)
# Procedure: Controls included using NEM (10 mM), the Ub75CH2CH2Br probe (1 μg) and a labelling excluding initiators. (B) HEK 293T cell lysate (50 μg) was pre-incubated for varying periods of time with probe 1 (1 μg) before exposure to UV light (365 nm) for 2 min.
# After confirming reactivity with a recombinant DUB, probe 1 was tested in HEK293T cell lysate using conditions analogous to those described for the recombinant enzyme labelling (FIG. 3). […] Exposure time to UV light was optimised, with conditions tested from […] (FIG. 3A, lanes 2-7). No labelling is observed at the 0 minute time point (FIG. 3A, lane 2). There is no discernible difference between the 1 minute and 10 minute timepoints (FIG. 3A, lanes 3 and 4). […] Two further control experiments were performed to validate the need for free thiols and to compare to an existing probe. […] Covalent bond formation therefore requires free cysteine residues. A labelling reaction with the known HA-Ub75CH2CH2Br probe was subjected to the same conditions as the thiol-ene labelling to confirm there was no degradation of the lysate under these conditions (FIG. 3A, lanes 9 and 10).
# It was next examined how the pre-incubation period affected the labelling pattern (FIG. 3B, lanes 1-5). It was reasoned that prior to activation, a binding equilibrium must be established between the probe and target enzymes to yield the rapid labelling observed. […]
# [2] = test system: DUBs in HEK293T cell lysate; experiment: PR-619 pre-incubation assay; format: biochemical, H. sapiens; details: lysate pre-incubated with increasing concentrations of PR-619, then probe 1 (1 μg) 90 min, UV 2 min
# Procedure: (§2) (A) HEK 293T cell lysate (50 μg) was pre-incubated for 90 min with increasing concentrations of PR-619 before being labelled with the probe 1 (1 μg). (B) HEK 293T cell lysate (50 μg) was pre-incubated with probe 1 (1 μg) for 90 min before PR-619 was added at increasing concentrations. (C) HEK 293T cell lysate (50 μg) was incubated with Ub75CH2CH2Br and PR 619 (100 μM) was added to one sample. All samples were exposed to UV light (365 nm) for 2 min.
# (§3) It was next set out to test the modulation of labelling using the known pan DUB inhibitor, PR-619 (X. Tian, N. S. Isamiddinova, R. J. Peroutka, S. J. Goldenberg, M. R. Mattern, B. Nicholson and C. Leach, Assay Drug Dev Technol, 2011, 9, 165-173). PR-619 was incubated with cell lysate for 30 min prior to the addition of probe 1 and the labelling was then carried out under optimised conditions with a 90 min pre-incubation time. […] This implies specificity of probe 1 towards DUBs. […] PR-619 was titrated into the mixture at increasing concentrations and incubated for a further 30 min before the addition of initiators and exposure to UV light (FIG. 4B). A parallel experiment was set up with the Ub75CH2CH2Br probe for comparison (FIG. 4C). […] (FIG. 4C, lanes 2 and 3). To check the integrity of the probe and cell lysate under these conditions a silver stain of the samples was also performed (FIG. 9). […]
# [3] = test system: DUBs in HEK293T cell lysate; experiment: PR-619 equilibrium disruption assay; format: biochemical, H. sapiens; details: probe 1 pre-incubated with lysate 90 min, PR-619 titrated 0-100 μM, further 30 min, UV 2 min
# Procedure: as §2, §3
# Chain of recombinant DUB OTUB1 (Q96FW1 whole entry): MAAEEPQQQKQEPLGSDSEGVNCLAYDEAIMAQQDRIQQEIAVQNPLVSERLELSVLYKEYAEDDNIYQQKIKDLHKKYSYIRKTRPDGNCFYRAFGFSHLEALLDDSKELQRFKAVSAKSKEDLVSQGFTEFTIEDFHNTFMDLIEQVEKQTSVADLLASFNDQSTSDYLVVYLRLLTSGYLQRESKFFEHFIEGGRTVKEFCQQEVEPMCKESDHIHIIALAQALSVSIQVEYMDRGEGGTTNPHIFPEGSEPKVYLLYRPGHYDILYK
compound,measurement,setting,value
"O=C([O-])c1ccccc1-c1c2cc(Br)c(=O)c(Br)c-2oc2c(Br)c([O-])c(Br)cc12.[Na+].[Na+] [Eosin Y, reference compound]",probe capture with Eosin Y relative to DPAP and MAP,recombinant DUB OTUB1,probe capture was comparable
same,probe capture with Eosin Y relative to DPAP and MAP,UCHL1,probe capture was comparable
"CCN1C(=O)C=CC1=O [NEM, N-ethylmaleimide, reference compound]",effect on probe 1 labelling,[1],inhibited labelling
N#CSc1cc(SC#N)c(N)nc1N [PR-619],"effect on probe 1 labelling intensity, inhibitor before probe",[2],concentration-dependent reduction in labelling intensity
same,"effect on probe 1 labelling, inhibitor added after binding equilibrium",[3],abrogates the labelling in a concentration dependent manner
